7 compounds from patent US4479962A, “Indazoloxypropanolamine derivatives and use in combating, and for the prophylaxis of, cardiac and circulatory diseases” (Boehringer Mannheim GmbH, priority 1981, dated 1984) can be followed below.

The assay deals with left ventricle. As to the kind of experiment: Cardiotonic effect in wake dogs, left ventricular dp/dt, in relation to isoprenalin. It counts as in vivo. Particulars: intravenous, wake mongrel dogs, average of two to four individual tests; for ED50: Canis lupus familiaris, increasing dosage in intervals of ten minutes, read-out: ED50 (dosage which achieves one-half of the maximum effect), dp/dt; for dp/dt (%) of 0.3/μg/kg Isoprenalin i.v. (maximum achievable effect in comparison to isoprenalin): relative to 0.3 μg/kg isoprenalin i.v. Here is the method:
For the tests, mongrel dogs of both sexes were used. In a preparatory operation, catheters had been inserted under aseptic conditions into the Arteria and Vena femoralis and, through the myocardium, into the left ventricle. The tests were begun not less than ten days after this operation, when the animals were again in a clinically healthy state. Throughout the test, during which the animals were wake, the arterial blood pressure was determined by means of a catheter and an electromechanical transducer. In addition, the pressure in the left ventricle was continuously measured by means of a tip manometer which had been introduced into the ventrical catheter and advanced as far as the heart, and from that pressure the differentiation based on the time dp/dt max was determined. The heart rate (f cor) was computed by counting the heart beats at a fast chart speed at given times of measurement. At the beginning of the experiments the animals were injected intravenously with 0.3 μg/kg of isoprenalin and the effect on the rapidity of the pressure increase recorded. After dissipation of this injection the test compounds were injected intravenously in increasing dosage rates in intervals of ten minutes and again the effect of each dosage level determined. For the characterization of the effectiveness of the test compounds two criteria were calculated: 1. The termination of the achievable maximum effect in comparison to isoprenalin. The maximum achievable effect of the test compound was compared to that of isoprenalin. (The higher the value, the stronger the effect.) 2. From the logarithm of the injected dosages and the effect after injection, the dosage was determined which achieves one-half of the maximum effect (ED 50). […]

Regarding `Cc1cccc(C)c1NCCCNCC(O)COc1cccc2[nH]ncc12` (centres unmarked) [1-(indazol-4-yloxy)-3-[3-2,6-dimethylphenylamino)-propylamino]-propan-2-ol], the ED50 worked out at 4.2 µg/kg and the “dp/dt (%) of 0.3/μg/kg Isoprenalin i.v. (maximum achievable effect in comparison to isoprenalin)” value (shortened to “dp/dt (%)”) came to 110%.
With `Cc1cccc(C)c1NCCNCC(O)COc1cccc2[nH]ccc12.O=C(O)O` (centres unmarked) [1-(Indol-4-yloxy)-3-[2-(2,6-dimethylphenylamino)-ethylamino]-propan-2-ol dihydrogen carbonate], the ED50 is 3.2 µg/kg and the “dp/dt (%)” value is recorded as 85%.
Turning to `OC(CNCCNc1cccc2c1CCC2)COc1cccc2[nH]ncc12` (centres unmarked) [1-(indazol-4-yloxy)-3-[2-(indanyl-4-amino)-ethylamino]-propan-2-ol], the ED50 was 4.9 µg/kg and the “dp/dt (%)” value is 83%.
As to `Cc1cccc(C)c1NCCNCC(O)COc1cccc2c1CCN2C=O` (centres unmarked) [1-(1-formylindolin-4-yloxy)-3-[2-(2,6-dimethylphenylamino)-ethylamino]-propan-2-ol], the ED50 came to 4.2 µg/kg and the “dp/dt (%)” value is recorded as 87%.
For `O=[N+]([O-])c1cccc(NCCNCC(O)COc2cccc3[nH]ncc23)c1` (centres unmarked) [1-(indazol-4-yloxy)-3-[2-(3-nitrophenylamino)-ethylamino]-propan-2-ol], the ED50 is 2 µg/kg and the “dp/dt (%)” value stood at 66%.
Taken in the same sequence, the figures for `Cc1cccc(C)c1NCCNCC(O)COc1cccc2[nH]ncc12` (centres unmarked) [1-(Indazol-4-yloxy)-3-[2-(2,6-dimethylphenylamino)ethylamino]-propan-2-ol] were 2.2 µg/kg and 87%.
For `Cc1cccc(C)c1NCCNCC(O)COc1cccc2[nH]nnc12.Cl.Cl` (centres unmarked) [1-(Benztriazol-4-yloxy)-3-[2-(2,6-dimethylphenylamino)-ethylamino]-propan-2-ol dihydrochloride], the ED50 worked out at 3.5 µg/kg and the “dp/dt (%)” value is on record as 100%.
